≈ marks a conversion by molar mass, not a printed value.
System: infectious agents (strains tested)
Assay: organism not typed
Type: cell-based

Question: `C[C@@H](c1ncncc1F)[C@](O)(Cn1cncn1)c1ccc(F)cc1F` [Voriconazole] was tested. Which MIC (Absidia spp, read-out: Geometric Mean MIC) did it give?
Answer: 40.3 µg/mL (≈ 115 µM)

Question: And the MIC (Absidia spp, read-out: MIC[90])?
Answer: 8 to 128 µg/mL (≈ 22.9 to 366 µM)

Question: What about the MIC (Apophysomyces spp, read-out: Geometric Mean MIC) of the same compound?
Answer: 42.2 µg/mL (≈ 121 µM)

Question: What about the MIC (Apophysomyces spp, read-out: MIC[90]) of the same compound?
Answer: 16 to 128 µg/mL (≈ 45.8 to 366 µM)

Question: What about the MIC (Aspergillus flavus, read-out: Geometric Mean MIC) of the same compound?
Answer: 0.339 µg/mL (≈ 0.97 µM)

Question: And the MIC (Aspergillus flavus, read-out: MIC[90])?
Answer: 1 µg/mL (≈ 2.86 µM)

Question: And the MIC (Aspergillus fumigatus, read-out: Geometric Mean MIC)?
Answer: 0.282 µg/mL (≈ 0.807 µM)

Question: What about the MIC (Aspergillus fumigatus, read-out: MIC[90]) of the same compound?
Answer: 0.5 µg/mL (≈ 1.43 µM)

Question: And the MIC (Aspergillus nidulans, read-out: Geometric Mean MIC)?
Answer: 0.07 µg/mL (≈ 0.2 µM)

Question: What about the MIC (Aspergillus nidulans, read-out: MIC[90]) of the same compound?
Answer: 0.031 to 0.125 µg/mL (≈ 0.0887 to 0.358 µM)

Question: What about the MIC (Aspergillus niger, read-out: Geometric Mean MIC) of the same compound?
Answer: 0.48 µg/mL (≈ 1.37 µM)

Question: What about the MIC (Aspergillus niger, read-out: MIC[90]) of the same compound?
Answer: 2 µg/mL (≈ 5.73 µM)

Question: What about the MIC (Aspergillus sydowii, read-out: Geometric Mean MIC) of the same compound?
Answer: 0.397 µg/mL (≈ 1.14 µM)

Question: And the MIC (Aspergillus sydowii, read-out: MIC[90])?
Answer: 0.25 to 1 µg/mL (≈ 0.716 to 2.86 µM)

Question: What about the MIC (Aspergillus terreus, read-out: Geometric Mean MIC) of the same compound?
Answer: 0.312 µg/mL (≈ 0.893 µM)

Question: What about the MIC (Aspergillus terreus, read-out: MIC[90]) of the same compound?
Answer: 0.5 µg/mL (≈ 1.43 µM)

Question: And the MIC (Aspergillus ustus, read-out: Geometric Mean MIC)?
Answer: 1.19 µg/mL (≈ 3.4 µM)

Question: What about the MIC (Aspergillus ustus, read-out: MIC[90]) of the same compound?
Answer: 0.25 to 2 µg/mL (≈ 0.716 to 5.73 µM)

Question: And the MIC (Bipolaris spp, read-out: Geometric Mean MIC)?
Answer: 1 µg/mL (≈ 2.86 µM)

Question: And the MIC (Bipolaris spp, read-out: MIC[90])?
Answer: 1 µg/mL (≈ 2.86 µM)

Question: And the MIC (Bjerkandera adusta, read-out: Geometric Mean MIC)?
Answer: 0.216 µg/mL (≈ 0.618 µM)

Question: What about the MIC (Bjerkandera adusta, read-out: MIC[90]) of the same compound?
Answer: 0.25 µg/mL (≈ 0.716 µM)

Question: And the MIC (Candida albicans, read-out: Geometric Mean MIC)?
Answer: 0.021 µg/mL (≈ 0.0601 µM)

Question: And the MIC (Candida albicans, read-out: MIC[90])?
Answer: 0.063 µg/mL (≈ 0.18 µM)

Question: And the MIC (Candida dubliniensis, read-out: Geometric Mean MIC)?
Answer: 0.028 µg/mL (≈ 0.0802 µM)

Question: And the MIC (Candida dubliniensis, read-out: MIC[90])?
Answer: 0.125 µg/mL (≈ 0.358 µM)

Question: And the MIC (Candida tropicalis, read-out: Geometric Mean MIC)?
Answer: 0.075 µg/mL (≈ 0.215 µM)

Question: And the MIC (Candida tropicalis, read-out: MIC[90])?
Answer: 0.5 µg/mL (≈ 1.43 µM)

Question: And the MIC (Clavispora lusitaniae, Candida lusitaniae, read-out: Geometric Mean MIC)?
Answer: 0.023 µg/mL (≈ 0.0658 µM)

Question: And the MIC (Clavispora lusitaniae, Candida lusitaniae, read-out: MIC[90])?
Answer: 0.063 µg/mL (≈ 0.18 µM)

Question: And the MIC (Cryptococcus neoformans, read-out: Geometric Mean MIC)?
Answer: 0.054 µg/mL (≈ 0.155 µM)

Question: And the MIC (Cryptococcus neoformans, read-out: MIC[90])?
Answer: 0.125 µg/mL (≈ 0.358 µM)

Question: And the MIC (Curvularia spp, read-out: Geometric Mean MIC)?
Answer: 0.125 µg/mL (≈ 0.358 µM)

Question: And the MIC (Curvularia spp, read-out: MIC[90])?
Answer: 0.125 µg/mL (≈ 0.358 µM)

Question: What about the MIC (Debaryomyces hansenii, Candida famata, read-out: Geometric Mean MIC) of the same compound?
Answer: 0.072 µg/mL (≈ 0.206 µM)

Question: What about the MIC (Debaryomyces hansenii, Candida famata, read-out: MIC[90]) of the same compound?
Answer: 0.008 to 0.5 µg/mL (≈ 0.0229 to 1.43 µM)

Question: What about the MIC (Diutina rugosa, Candida rugosa, read-out: Geometric Mean MIC) of the same compound?
Answer: 0.072 µg/mL (≈ 0.206 µM)

Question: What about the MIC (Diutina rugosa, Candida rugosa, read-out: MIC[90]) of the same compound?
Answer: 0.5 µg/mL (≈ 1.43 µM)

Question: And the MIC (Dujonia zeylanoides, Candida zeylanoides, read-out: Geometric Mean MIC)?
Answer: 0.039 µg/mL (≈ 0.112 µM)

Question: And the MIC (Dujonia zeylanoides, Candida zeylanoides, read-out: MIC[90])?
Answer: 0.008 to 0.125 µg/mL (≈ 0.0229 to 0.358 µM)

Question: And the MIC (Epidermophyton floccosum, read-out: Geometric Mean MIC)?
Answer: 0.015 µg/mL (≈ 0.0429 µM)

Question: What about the MIC (Epidermophyton floccosum, read-out: MIC[90]) of the same compound?
Answer: 0.016 µg/mL (≈ 0.0458 µM)

Question: What about the MIC (Exophiala dermatidis, read-out: Geometric Mean MIC) of the same compound?
Answer: 0.063 µg/mL (≈ 0.18 µM)

Question: What about the MIC (Exophiala dermatidis, read-out: MIC[90]) of the same compound?
Answer: 0.063 µg/mL (≈ 0.18 µM)

Question: And the MIC (Exophiala dermatitidis, Wangiella dermatitidis, read-out: Geometric Mean MIC)?
Answer: 1 µg/mL (≈ 2.86 µM)

Question: What about the MIC (Exophiala dermatitidis, Wangiella dermatitidis, read-out: MIC[90]) of the same compound?
Answer: 1 µg/mL (≈ 2.86 µM)

Question: What about the MIC (Exophiala jeanselmei, read-out: Geometric Mean MIC) of the same compound?
Answer: 0.794 µg/mL (≈ 2.27 µM)

Question: What about the MIC (Exophiala jeanselmei, read-out: MIC[90]) of the same compound?
Answer: 0.5 to 1 µg/mL (≈ 1.43 to 2.86 µM)

Question: And the MIC (Fonsecae pedrosoi, read-out: Geometric Mean MIC)?
Answer: 0.5 µg/mL (≈ 1.43 µM)

Question: What about the MIC (Fonsecae pedrosoi, read-out: MIC[90]) of the same compound?
Answer: 0.5 µg/mL (≈ 1.43 µM)

Question: And the MIC (Fusarium spp, read-out: Geometric Mean MIC)?
Answer: 4.42 µg/mL (≈ 12.6 µM)

Question: And the MIC (Fusarium spp, read-out: MIC[90])?
Answer: 16 µg/mL (≈ 45.8 µM)

Question: What about the MIC (Kluyveromyces marxianus, Candida kefyr, read-out: Geometric Mean MIC) of the same compound?
Answer: 0.031 µg/mL (≈ 0.0887 µM)

Question: And the MIC (Kluyveromyces marxianus, Candida kefyr, read-out: MIC[90])?
Answer: 0.031 µg/mL (≈ 0.0887 µM)

Question: And the MIC (Lodderomyces parapsilosis, Candida parapsilosis, read-out: Geometric Mean MIC)?
Answer: 0.036 µg/mL (≈ 0.103 µM)

Question: What about the MIC (Lodderomyces parapsilosis, Candida parapsilosis, read-out: MIC[90]) of the same compound?
Answer: 0.125 µg/mL (≈ 0.358 µM)

Question: And the MIC (Meyerozyma guilliermondii, Candida guilliermondii, read-out: Geometric Mean MIC)?
Answer: 0.112 µg/mL (≈ 0.321 µM)

Question: What about the MIC (Meyerozyma guilliermondii, Candida guilliermondii, read-out: MIC[90]) of the same compound?
Answer: 8 µg/mL (≈ 22.9 µM)

Question: And the MIC (Microsporum canis, read-out: Geometric Mean MIC)?
Answer: 0.018 µg/mL (≈ 0.0515 µM)

Question: And the MIC (Microsporum canis, read-out: MIC[90])?
Answer: 0.031 µg/mL (≈ 0.0887 µM)

Question: And the MIC (Mucor spp, read-out: Geometric Mean MIC)?
Answer: 24.7 µg/mL (≈ 70.6 µM)

Question: What about the MIC (Mucor spp, read-out: MIC[90]) of the same compound?
Answer: 1 to 128 µg/mL (≈ 2.86 to 366 µM)

Question: What about the MIC (Nakaseomyces glabratus, Candida glabrata, read-out: Geometric Mean MIC) of the same compound?
Answer: 0.305 µg/mL (≈ 0.873 µM)

Question: What about the MIC (Nakaseomyces glabratus, Candida glabrata, read-out: MIC[90]) of the same compound?
Answer: 2 µg/mL (≈ 5.73 µM)

Question: And the MIC (Paecilomyces spp, read-out: Geometric Mean MIC)?
Answer: 0.324 µg/mL (≈ 0.928 µM)

Question: And the MIC (Paecilomyces spp, read-out: MIC[90])?
Answer: 0.031 to 2 µg/mL (≈ 0.0887 to 5.73 µM)

Question: What about the MIC (Papiliotrema laurentii, Cryptococcus laurentii, read-out: Geometric Mean MIC) of the same compound?
Answer: 0.25 µg/mL (≈ 0.716 µM)

Question: And the MIC (Papiliotrema laurentii, Cryptococcus laurentii, read-out: MIC[90])?
Answer: 0.25 µg/mL (≈ 0.716 µM)

Question: And the MIC (Penicillium spp, read-out: Geometric Mean MIC)?
Answer: 0.622 µg/mL (≈ 1.78 µM)

Question: What about the MIC (Penicillium spp, read-out: MIC[90]) of the same compound?
Answer: 2 µg/mL (≈ 5.73 µM)

Question: And the MIC (Pichia kudriavzevii, Candida krusei, read-out: Geometric Mean MIC)?
Answer: 0.346 µg/mL (≈ 0.991 µM)

Question: And the MIC (Pichia kudriavzevii, Candida krusei, read-out: MIC[90])?
Answer: 0.5 µg/mL (≈ 1.43 µM)

Question: What about the MIC (Rhizomucor spp, read-out: Geometric Mean MIC) of the same compound?
Answer: 2 µg/mL (≈ 5.73 µM)

Question: What about the MIC (Rhizomucor spp, read-out: MIC[90]) of the same compound?
Answer: 2 µg/mL (≈ 5.73 µM)

Question: And the MIC (Rhizopus spp, read-out: Geometric Mean MIC)?
Answer: 8 µg/mL (≈ 22.9 µM)

Question: And the MIC (Rhizopus spp, read-out: MIC[90])?
Answer: 1 to 32 µg/mL (≈ 2.86 to 91.6 µM)

Question: And the MIC (Saccharomyces cerevisiae, read-out: Geometric Mean MIC)?
Answer: 0.05 µg/mL (≈ 0.143 µM)

Question: What about the MIC (Saccharomyces cerevisiae, read-out: MIC[90]) of the same compound?
Answer: 0.125 µg/mL (≈ 0.358 µM)

Question: And the MIC (Scedosporium apiospermum, read-out: Geometric Mean MIC)?
Answer: 0.098 µg/mL (≈ 0.281 µM)

Question: And the MIC (Scedosporium apiospermum, read-out: MIC[90])?
Answer: 0.5 µg/mL (≈ 1.43 µM)

Question: What about the MIC (Scedosporium boydii, Pseudallescheria boydii, read-out: Geometric Mean MIC) of the same compound?
Answer: 0.25 µg/mL (≈ 0.716 µM)

Question: And the MIC (Scedosporium boydii, Pseudallescheria boydii, read-out: MIC[90])?
Answer: 0.125 to 0.5 µg/mL (≈ 0.358 to 1.43 µM)

Question: What about the MIC (Trichophyton mentagrophytes, read-out: Geometric Mean MIC) of the same compound?
Answer: 0.038 µg/mL (≈ 0.109 µM)

Question: And the MIC (Trichophyton mentagrophytes, read-out: MIC[90])?
Answer: 0.25 µg/mL (≈ 0.716 µM)

Question: And the MIC (Trichophyton rubrum, read-out: Geometric Mean MIC)?
Answer: 0.021 µg/mL (≈ 0.0601 µM)

Question: What about the MIC (Trichophyton rubrum, read-out: MIC[90]) of the same compound?
Answer: 0.063 µg/mL (≈ 0.18 µM)

Question: What about the MIC (Trichophyton tonsurans, read-out: Geometric Mean MIC) of the same compound?
Answer: 0.043 µg/mL (≈ 0.123 µM)

Question: What about the MIC (Trichophyton tonsurans, read-out: MIC[90]) of the same compound?
Answer: 0.063 µg/mL (≈ 0.18 µM)

Question: And the MIC (Trichosporon spp, read-out: Geometric Mean MIC)?
Answer: 0.125 µg/mL (≈ 0.358 µM)

Question: And the MIC (Trichosporon spp, read-out: MIC[90])?
Answer: 0.125 µg/mL (≈ 0.358 µM)

— US20090226527A1, “Particulate-stabilized injectable pharmacutical compositions of posaconazole” (priority 2004, published 2009)
